Experimental data taken from PMC8885877, “STAT3 inhibition suppresses adaptive survival of ALK-rearranged lung cancer cells through transcriptional modulation of apoptosis” (NPJ Precision Oncology, 2022).

Biological target: STAT3 (Homo sapiens, UniProt P40763)
Experiment: Alpha-based competitive binding assay with biotinylated recombinant STAT3 and FITC-labeled phospho-Tyr peptide
Text: Alpha-based competitive binding assay with biotinylated recombinant STAT3 and FITC-labeled phospho-Tyr peptide on STAT3 | inhibited the binding of phospho-Tyr peptide to the SH2 domain of STAT3 in a concentration-dependent manner with IC50 values

Chain of STAT3 (P40763 2-770): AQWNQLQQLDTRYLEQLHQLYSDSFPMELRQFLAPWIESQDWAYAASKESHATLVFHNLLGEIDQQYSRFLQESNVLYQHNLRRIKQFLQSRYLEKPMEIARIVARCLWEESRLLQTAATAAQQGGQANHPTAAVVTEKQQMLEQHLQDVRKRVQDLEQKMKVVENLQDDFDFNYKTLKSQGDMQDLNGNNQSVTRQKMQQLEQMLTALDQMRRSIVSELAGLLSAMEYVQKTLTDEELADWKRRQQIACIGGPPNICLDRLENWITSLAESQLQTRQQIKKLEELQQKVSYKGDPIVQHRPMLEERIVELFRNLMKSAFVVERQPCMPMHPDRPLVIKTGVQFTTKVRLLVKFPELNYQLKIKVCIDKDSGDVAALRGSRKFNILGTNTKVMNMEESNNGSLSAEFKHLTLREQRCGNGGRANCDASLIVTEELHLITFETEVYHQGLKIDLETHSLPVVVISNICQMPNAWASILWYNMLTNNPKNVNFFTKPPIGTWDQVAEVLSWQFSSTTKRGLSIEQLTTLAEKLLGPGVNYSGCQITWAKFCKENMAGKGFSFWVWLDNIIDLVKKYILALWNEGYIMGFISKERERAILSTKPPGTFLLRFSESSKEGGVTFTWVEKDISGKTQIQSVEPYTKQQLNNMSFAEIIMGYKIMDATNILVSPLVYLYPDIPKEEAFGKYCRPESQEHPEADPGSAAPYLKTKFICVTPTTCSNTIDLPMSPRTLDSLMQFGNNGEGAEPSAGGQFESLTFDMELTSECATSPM

IC50: 2500 nM
Substance: YHO-1701
